In brackets after ≈: the same amount, converted by molar mass.
How the values were obtained:
Daoy = test: Cytotoxicity against human DaOY cells after 48 hrs by MTS assay; format: functional, cell-based
Enterococcus raffinosus = test: Antibacterial activity against Enterococcus raffinosus; format: functional
Staphylococcus aureus = test: Antibacterial activity against Staphylococcus aureus; format: functional
Jurkat = test: Growth inhibition of human Jurkat cells; format: functional
[1] = Growth inhibition of human NPC-TW01 cells; format: functional
NCI-H226 = test: Growth inhibition of human NCI-H226 cells; format: functional
[2] = tested on: Mycobacterium tuberculosis; test: Antitubercular activity against Mycobacterium tuberculosis assessed as growth inhibition; format: functional
[3] = Cytotoxicity against human Saos2 cells assessed as inhibition of cell viability at 25 uM after 48 hrs by MTT assay relative to control; format: functional; details: SAOS-2, 48 h
[4] = Cytotoxicity against human Saos2 cells after 48 hrs by MTT assay; format: functional, cell-based; details: SAOS-2, 48 h
HL-60 = test: Cytotoxicity against human HL60 cells by MTT assay; format: functional, cell-based

Fc1cccc(CNc2ncnc3c2cnn3CC(Cl)c2ccc(Br)cc2)c1 (configuration not stated)
IC50 (Daoy): 3.5 µM

Nc1n[nH]c2nc(-c3ccccc3)nc(-c3ccc(Br)cc3)c12
MIC (Enterococcus raffinosus): 12.3 µM (≈ 4.5 µg/mL)
MIC (Staphylococcus aureus): 3.8 µM (≈ 1.39 µg/mL)

Clc1ccc(-c2nn(-c3ccccc3)c3ncncc23)cc1
GI50 (Jurkat): 36 µM
GI50 [1]: 23 µM
GI50 (NCI-H226): 18 µM

Cc1ccc(-c2nn(-c3ccc4ccccc4n3)c3ncncc23)cc1
GI50 (Jurkat): 54 µM
GI50 [1]: 30 µM
GI50 (NCI-H226): 29 µM

Clc1ccc(-c2nn(-c3ccc4ccccc4n3)c3ncncc23)cc1
GI50 (Jurkat): 69 µM
GI50 [1]: 35 µM
GI50 (NCI-H226): 39 µM

COc1ccc(-c2nn(-c3ccc4ccccc4n3)c3ncncc23)cc1
GI50 (Jurkat): > 100 µM
GI50 [1]: 36 µM
GI50 (NCI-H226): 37 µM

COc1ccc(-c2nc(-c3ccccc3)nc3[nH]nc(N)c23)cc1
MIC (Enterococcus raffinosus): 14.2 µM (≈ 4.51 µg/mL)
MIC (Staphylococcus aureus): 4.2 µM (≈ 1.33 µg/mL)

Nc1n[nH]c2nc(-c3ccccc3)nc(-c3ccc(Cl)cc3)c12
MIC (Enterococcus raffinosus): > 300 µM
MIC (Staphylococcus aureus): 190 µM (≈ 61.2 µg/mL)

Nc1ccc(-c2nc(-c3ccccc3)nc3[nH]nc(N)c23)cc1
MIC (Enterococcus raffinosus): 82.8 µM (≈ 25 µg/mL)
MIC (Staphylococcus aureus): 34.5 µM (≈ 10.4 µg/mL)

C#CCn1ncc2c(SCc3ccccc3)ncnc21
inhibition (INH) [2]: >90%
MIC ([2]; Mycobacterium tuberculosis): 12.5 µg/mL (≈ 44.6 µM)

CSc1nc(Nc2cccc(Cl)c2)c2cnn(CC(Cl)c3ccccc3)c2n1 (configuration not stated)
inhibition at 25 µM [3]: 93.3%
IC50 [4]: 11.6 µM

Fc1ccc(CNc2ncnc3c2cnn3CC(Cl)c2ccc(Cl)cc2)cc1 (configuration not stated)
IC50 (Daoy): 1.72 µM

CC(C)(C)n1nc(-c2ccc(Cl)cc2)c2c(N)ncnc21
inhibition at 25 µM [3]: 85.3%
IC50 [4]: 8.07 µM

CCCCNc1ncnc2c1cnn2CC(Cl)c1ccccc1 (configuration not stated)
inhibition at 25 µM [3]: 71.1%
IC50 (Daoy): 6.24 µM
IC50 [4]: 14.6 µM

COc1cccc2c1C(=O)c1c(O)c3c(c(O)c1C2=O)C[C@@](O)(C(=O)CO)C[C@@H]3O[C@H]1C[C@H](N)[C@H](O)[C@H](C)O1 [DOXORUBICIN]
IC50 (HL-60): 0.55 µM

From ChEMBL document CHEMBL3232891, “Medicinal attributes of pyrazolo[3,4-d]pyrimidines: a review” (Bioorg Med Chem, 2013)
